# Data: patent publication US20050175599A1, “Process for producing substance” (Kyowa Hakko Kogyo Co., Ltd., priority 2001, published 2005)
# Tests used:
# [1] = tested on: transformant cell line 61-33γ (host YB2/0) producing a chimeric anti-GD3 antibody; assay: Batch culture of antibody-producing cells in Q10-containing serum-free medium (Example 1); format: cell-based, rat; conditions: Q10-added culture, 500 μM Q10 (added as SANOMIT), batch culture 6 days
# Description: The following batch culture was performed with transformant cell line 61-33γ (FERM BP-7325, WO 01/29246) which was obtained by using hybridoma cell line YB2/0 derived from a rat myeloma cell line as a host cell and produces a chimeric anti-GD3 antibody. […]
# From the start to the completion of culturing, the liquid culture was sampled once a day, to assay the viable cell density (cells/mL) and the antibody concentration (μg/mL) respectively. Further, the viable cell density was measured by a dye-exclusion method using 0.4% trypan blue solution.
# The cumulative number of viable cells is shown as the total sum of the viable cell density multiplied by the time as elapsed. In the present Example, the viable cell density was measured once a day, and the cumulative number of viable cells was shown as value of the additive sum of the individual viable cell densities measured each time (cells/mL×days).
# Additionally, the specific antibody production rate and the relative specific antibody production rate were calculated respectively by the following equations. […]
# [2] = tested on: transformant cell line 503LCA500D (derived from CHO/DG44) producing chimeric anti-CCR4 antibody; assay: Fed-batch culture of antibody-producing cells with Q10-containing feed medium (Example 3); format: cell-based, Chinese hamster; conditions: for cumulative number of cells on the completion of culturing: Q10-free culture 3.94×10^7; for relative specific antibody production rate: Q10-free culture = 100%
# Description: Lens culinaris agglutinin (hereinafter abbreviated as LCA) resistant cell line CHO-LCA, which is derived from Chinese hamster ovary cell line CHO/DG44, was prepared by the method described in WO 02/31140, and chimeric anti-CCR4 antibody expression vector pCANTEX 2160 (WO 01/64754) was transfected into this cell line. Then, amethotrexate (MTX)-resistant cell was selected for gene amplification to obtain transformant cell line 503LCA500D (FERM BP-8239) producing chimeric anti-CCR4 antibody. The following fed-batch culture was performed using this cell line 503LCA500D. 503LCA500D was deposited as FERM BP-8239 in International Patent Organism Depositary, National Institute of Advanced Industrial Science and Technology (AIST Tsukuba Central 6, 1-1-1 Higashi, Tsukuba, Ibaraki, Japan) as of Nov. 20, 2002.
# The cells were inoculated in a 250-mL conical flask containing 50 mL of a serum-free medium. (EX-CELL 302 medium, manufactured by JRH Biosciences) to a cell density of 3×10^5 cells/mL, followed by spinner culture at 100 rpm at 37° C.
# In Q10-added cultures, 0.5 mL or 1 mL of a health drink SANOMIT (manufactured by MSE Pharmazeutica GmbH) comprising Q10, water, glycerin, ethanol and lecithin was added to 20 mL of an animal-protein-material-free feed medium comprising amino acids (0.22 g/L L-alanine, 0.74 g/L L-arginine monohydrochloride, 0.22 g/LL-asparagine (anhydrous), 0.26 g/L L-aspartic acid, 0.8 g/L L-cystine dihydrochloride, 0.66 g/L L-glutamic acid, 7.34 g/L L-glutamine, 0.26 g/L glycine, 0.37 g/L L-histidine monohydrochloride dihydrate, 0.92 g/L L-isoleucine, 0.92 g/L L-leucine, 1.29 g/L L-lysine monohydrochloride, 0.26 g/L L-methionine, 0.58 g/L L-phenylalanine, 0.35 g/L L-proline, 0.37 g/L L-serine, 0.84 g/L L-threonine, 0.14 g/L L-tryptophan, 0.92 g/L L-tyrosine disodium dihydrate, and 0.83 g/LL-valine), vitamins (0.11 mg/L d-biotin, 0.035 g/L calcium D-pantothenate, 0.035 g/L choline chloride, 0.035 g/L folic acid, 0.063 g/L myo-inositol, 0.035 g/L niacin amide, 0.035 g/L pyridoxal hydrochloride, 0.0035 g/L riboflavin, 0.035 g/L thiamine hydrochloride, and 0.00011 mg/L cyanocobalamine), 0.0251 g/L ethanolamine, 0.314 g/L insulin, 8 g/L soybean hydrolysate HY-SOY (manufactured by Quest International), 0.05 g/L ethylenediaminetetraacetic acid ferric sodium salt (manufactured by Sigma-Aldrich Co.), and 2 mL cholesterol lipid concentrate (1,000×aqueous solution, manufactured by Invitrogen Corp.). The concentrations of Q10 in the feed media after addition of SANOMIT were 1,563 μmol/L and 3,125 μmol/L respectively. […]
smiles,measurement,setting,value
COC1=C(OC)C(=O)C(C/C=C(\C)CC/C=C(\C)CC/C=C(\C)CC/C=C(\C)CC/C=C(\C)CC/C=C(\C)CC/C=C(\C)CC/C=C(\C)CC/C=C(\C)CCC=C(C)C)=C(C)C1=O [Q10],cumulative number of cells on the completion of culturing,[1]; Q10-free culture 1.71×10^7,1.51×10^7 cells/mL×days
same,relative specific antibody production rate,[1]; Q10-free culture = 100%,166.3%
same,cumulative number of cells on the completion of culturing,"[2]; Q10-added culture 1, 121 to 393 μmol/L Q10 in the medium (SANOMIT in feed), fed-batch 13 days",3.64×10^7 cells/mL×days
same,relative specific antibody production rate,"[2]; Q10-added culture 1, 121 to 393 μmol/L Q10 in the medium, fed-batch 13 days",128.8%
same,cumulative number of cells on the completion of culturing,"[2]; Q10-added culture 2, 242 to 786 μmol/L Q10 in the medium (SANOMIT in feed), fed-batch 15 days",2.00×10^7 cells/mL×days
same,relative specific antibody production rate,"[2]; Q10-added culture 2, 242 to 786 μmol/L Q10 in the medium, fed-batch 15 days",149.1%
